{"source": "paper PMC9950431", "about": "“A bivalent remipede toxin promotes calcium release via ryanodine receptor activation” (Nature Communications, 2023)", "key": {"[1]": {"test_system": "CaV1.3", "assay": "FLIPR Ca2+ assay, inhibition of endogenous CaV1.3", "format": "cell-based, human", "conditions": "for Ca2+ response relative to control response: 3 µM Xt3a pre-treatment, KCl 90 mM/CaCl2 5 mM, over 300 s", "procedure": "(§1) SH-SY5Y human neuroblastoma cells (European Collection of Authenticated Cell Culture, Sigma Aldrich, 94030304-1VL) were cultured in RPMI media (ThermoFisher Scientific, Scoresby, Australia) supplemented with 15% foetal bovine serum and L-glutamine (1 mM) and passaged at approximately 80% confluency with TrypLE Express (Thermo Fisher, Australia). For fluorescence imaging, cells were plated on CellBIND (Corning) 384-well black-walled imaging plates at a density of 20,000–30,000 cells/well in complete media and cultured for 48 h at 37 °C/5% CO2.\n(§2) Briefly, SH-SY5Y cells were loaded with Calcium 4 no-wash dye (Molecular Devices) diluted in physiological salt solution (composition in mM: NaCl 140, D-glucose 11.5, KCl 5.9, MgCl2 1.4, NaH2PO4 1.2, NaHCO3 5, CaCl2 1.8, HEPES 10) for 30 min at 37 °C. A two-addition FLIPR^Tetra (Molecular Devices) protocol using the following settings was used to measure fluorescence responses: excitation 470–495 nm; emission 515–575 nm; excitation intensity 80%; excitation duration 0.8 s; gain 140; read interval 1/s; read number 300/addition. Responses mediated via endogenously expressed ion channels were elicited by addition of: choline (30 μM)/PNU-120596 (10 μM) for α7 nAChR-mediated responses; nicotine (30 μM) for α3β2/α3β4 nAChR-mediated responses; KCl (90 mM)/CaCl2 (5 mM) for CaV1.3-mediated responses; KCl (90 mM)/CaCl2 (5 mM) + nifedipine (10 μM) for CaV2.2-mediated responses; vertridine (70 μM) for NaV1.2-mediated responses; and veratridine (4 μM)/OD1 (300 nM) for NaV1.7-mediated responses. Raw fluorescence readings were converted to response over baseline using the analysis tool Screenworks 3.1.1.4 (Molecular Devices) and were expressed relative to the maximum increase in fluorescence of control responses and plotted using GraphPad Prism 9.3.1.\n(§3) In the cell-based FLIPR assays statistical analysis was performed using GraphPad Prism 9.3.1. Statistical significance was defined as p < 0.05, and determined by one-sample t-test assessing difference to the control value of 100%. In α7 nAChR, α3-containing nAChR, CaV1.3, CaV2.2, NaV1.2 and NaV1.7 channels (Supplementary Fig. 5B), with distribution (t) and degrees of freedom (df) being: t = 0.9683, df = 2 (α7); t = 1.338, df = 2 (α3); t = 1.775, df = 2 (NaV1.2); t = 1.478"}, "[2]": {"test_system": "sarcoplasmic reticulum (SR) in mouse extensor digitorum longus (EDL) fibers", "assay": "SR Ca2+ leak in mechanically-skinned EDL muscle fibers (total SR Ca2+ content, [CaT]SR, after 1 min leak)", "format": "cell-based, mouse (C57/Bl6)", "from_the_text": "All experiments were approved by The University of Queensland Animal Ethics Committees. Male and female C57/Bl6 2–6-month-old mice were sacrificed by asphyxiation via CO2 exposure and the EDL muscles were rapidly excised. The EDL was pinned at resting length in a petri dish lined with Sylgard 184 (Dow Corning, Midland, MI) and immersed in paraffin oil (Ajax Chemicals, Sydney, Australia). Segments of individual fibers were mechanically skinned using jeweler’s forceps and pinned out unstretched under oil[37]–[39]. The skinned fiber was then mounted at 120% of resting length on a force transducer (Myotronic UG, Heidelberg, Germany) before transfer to a 2-ml Perspex bath containing standard K^+-based solution that broadly mimics the intracellular milieu. […] All chemicals were purchased from Sigma-Aldrich (St Louis, MO, USA) unless specified otherwise.\nVariations of the standard solution were prepared. To deplete the caffeine releasable Ca^2+ (“full release solution”), 30 mM caffeine was added, [Mg^2+] was lowered to 0.05 mM (total Mg^2+ of 2.1 mM) and free EGTA was adjusted to 0.5 mM (pCa 8.5) to chelate released Ca^2+. To measure the maximum force produced by the skinned fiber, all HDTA was replaced by EGTA (relaxing solution) or CaEGTA (maximum Ca^2+ activating solution). The relaxing solution contained 50 mM EGTA and no added Ca^2+ (pCa > 9) and the maximum Ca^2+-activating solution contained 49.5 mM Ca^2+ (pCa 4.7), with total Mg^2+ of 10.3 and 8.1 mM, respectively, to maintain the free [Mg^2+] at 1 mM. A “leak solution” was also prepared, where [Mg^2+] set at 0.1 mM (total Mg^2+ of 3.4 mM) to increase the PO of RyR and with 2 mM EGTA (pCa ~8.5) to chelate leaky Ca^2+ from the SR. […] The BAPTA solution used to pre-equilibrate fibers before lysing was similar to the standard K-HDTA solution but EGTA was replaced with 0.1–1.6 mM BAPTA[37],[39].\nThe skinned fiber was then equilibrated for 20 s in a solution with a set [BAPTA] before being placed in a freshly triturated emulsion of Triton X-100 in paraffin oil (TX–oil) (10% v/v). The Ca^2+ released upon the membrane lysing rapidly binds to the known amount of BAPTA present within the fiber and to other sites, predominantly troponin C (TnC). The pre-equilibrating [BAPTA] was chosen such that the fiber produced a finite, non-maximal force response upon lysis. Pre-treatment of the fiber with “full release solution” allowed the non-SR Ca^2+ content of the skinned fiber to be assayed. The total amount of Ca^2+ present in the fiber could be calculated from the [BAPTA] in the equilibration solution and the magnitude of the force response. Data are presented as mean ± SD, with n denoting the number of fibers examined. Statistical significance (p < 0.05) was determined with One-way ANOVA."}, "[3]": {"test_system": "α3β2/α3β4 nAChR (α3-containing nAChR)", "assay": "FLIPR Ca2+ assay, inhibition of endogenous α3-containing nAChR", "format": "cell-based, human", "conditions": "for Ca2+ response relative to control response: 3 µM Xt3a pre-treatment, nicotine 30 μM, over 300 s", "procedure": "as §1, §2, §3"}}, "data": [{"substance": "φ-Xibalbin3-Xt3a", "values": [{"measurement": "Ca2+ response relative to control response", "setting": "[1]; replicate 1", "value": 100.265, "unit": "%"}, {"measurement": "Ca2+ response relative to control response", "setting": "[1]; replicate 2", "value": 98.0302, "unit": "%"}, {"measurement": "Ca2+ response relative to control response", "setting": "[1]; replicate 3", "value": 95.1795, "unit": "%"}, {"measurement": "inhibition of Ca2+ responses", "setting": "[1]; Xt3a 3 µM", "value": "did not inhibit Ca^2+ responses"}, {"measurement": "efficiency to increase SR Ca2+ leakage (order)", "setting": "[2]; 10 nM", "value": "Xt3a > Xt3a-D1 ~ IpTxA > Xt3a-D2"}, {"measurement": "depletion of [CaT]SR", "setting": "[2]; 10 nM peptide in leak solution, 1 min leak, mean ± SD, control leak 18 ± 7%", "value": "76 ± 5", "unit": "%"}, {"measurement": "Relative amount of total Ca2+ left in the SR ([CaT]SR)", "setting": "[2]; 10 nM peptide, 1 min leak, relative to Pre, fiber 2 of column", "value": 20.6}, {"measurement": "Relative amount of total Ca2+ left in the SR ([CaT]SR)", "setting": "[2]; 10 nM peptide, 1 min leak, relative to Pre, fiber 3 of column", "value": 24.9}, {"measurement": "Relative amount of total Ca2+ left in the SR ([CaT]SR)", "setting": "[2]; 10 nM peptide, 1 min leak, relative to Pre, fiber 4 of column", "value": 22.9}, {"measurement": "Relative amount of total Ca2+ left in the SR ([CaT]SR)", "setting": "[2]; 10 nM peptide, 1 min leak, relative to Pre, fiber 5 of column", "value": 23.5}, {"measurement": "Relative amount of total Ca2+ left in the SR ([CaT]SR)", "setting": "[2]; 10 nM peptide, 1 min leak, relative to Pre, fiber 6 of column", "value": 22.7}, {"measurement": "Relative amount of total Ca2+ left in the SR ([CaT]SR)", "setting": "[2]; 10 nM peptide, 1 min leak, relative to Pre, fiber 7 of column", "value": 27.4}, {"measurement": "Relative amount of total Ca2+ left in the SR ([CaT]SR)", "setting": "[2]; 10 nM peptide, 1 min leak, relative to Pre, fiber 8 of column", "value": 27.5}, {"measurement": "Relative amount of total Ca2+ left in the SR ([CaT]SR)", "setting": "[2]; 10 nM peptide, 1 min leak, relative to Pre, fiber 9 of column", "value": 25.7}, {"measurement": "Relative amount of total Ca2+ left in the SR ([CaT]SR)", "setting": "[2]; 10 nM peptide, 1 min leak, relative to Pre, fiber 10 of column", "value": 30.9}, {"measurement": "Relative amount of total Ca2+ left in the SR ([CaT]SR)", "setting": "[2]; 10 nM peptide, 1 min leak, relative to Pre, fiber 11 of column", "value": 32.9}, {"measurement": "Relative amount of total Ca2+ left in the SR ([CaT]SR)", "setting": "[2]; 10 nM peptide, 1 min leak, relative to Pre, fiber 12 of column", "value": 22.4}, {"measurement": "Relative amount of total Ca2+ left in the SR ([CaT]SR)", "setting": "[2]; 10 nM peptide, 1 min leak, relative to Pre, fiber 13 of column", "value": 13.3}, {"measurement": "Relative amount of total Ca2+ left in the SR ([CaT]SR), mean", "setting": "[2]; 10 nM peptide, 1 min leak, relative to Pre, mean (n = 13 Xt3a, n = 10 others)", "value": 24.4}, {"measurement": "Relative amount of total Ca2+ left in the SR ([CaT]SR)", "setting": "[2]; 10 nM peptide, 1 min leak, relative to [CaT]SR before the leak (Pre), fiber 1 of column", "value": 21.9}, {"measurement": "Ca2+ response relative to control response", "setting": "[3]; replicate 1", "value": 102.763, "unit": "%"}, {"measurement": "Ca2+ response relative to control response", "setting": "[3]; replicate 2", "value": 100.13, "unit": "%"}, {"measurement": "Ca2+ response relative to control response", "setting": "[3]; replicate 3", "value": 100.441, "unit": "%"}, {"measurement": "inhibition of Ca2+ responses", "setting": "[3]; Xt3a 3 µM", "value": "did not inhibit Ca^2+ responses"}]}]}
